We go through 46 compounds from patent publication US10980805B2, “Aza-pyridone compounds and uses thereof” (Janssen BioPharma, Inc., priority 2013, dated 2021).

Each structure is given as a SMILES string. Read-outs that look alike come from different tables or passages of the source.

The target of experiment [1] is Full length EN PA (influenza PA endonuclease) (Influenza A virus, UniProt P15659). Put plainly: EN PA FRET inhibition assay. To be noted: FRET probe, mean of a minimum of two independent experiments, read-out: Potency (IC50 class, Table 3). Format: biochemical.
Experiment [2] deals with Influenza strain A549_A/WSN/33 (H1N1). Put plainly: Influenza antiviral assay (neuraminidase fluorescence readout). The experiment is classed as cell-based, Influenza virus. To be noted: read-out: % Inhibition (EC50 class, Table 2).
The test system of experiment [3] is Influenza strain A/Port Chalmers/1/73 (H3N2). Briefly: Combination studies (checker-board, MacSynergy II). The experiment is classed as cell-based, Influenza virus. To be noted: MDCK cells, three days.
Where [4] appears, read: Compound 2 = Rimantadine (M2 Channel-Inhibitor).

For `CN1C[C@H]([C@@H](c2ccccc2)n2cnc(I)c2)n2ncc(=O)c(O)c2C1=O` [Compound 107-A], the IC50 (as a rule, the concentration at which inhibition is half-maximal) in experiment [1] is below 250 nM. The EC50 (usually the midpoint of the concentration-response curve) in experiment [2] (Influenza A virus) was 20000 to 100000 nM.
For `CN1C[C@H]([C@H](c2ccccc2)n2cnc(I)c2)n2ncc(=O)c(O)c2C1=O` [Compound 107-B], the concentration for half-maximal inhibition (IC50) in experiment [1] was below 250 nM. Besides, the EC50 in experiment [2] (Influenza A virus) was 20000 to 100000 nM.
The matching figures for `CN1C[C@H]([C@@H](c2ccccc2)n2ccnc2)n2ncc(=O)c(O)c2C1=O` [Compound 108-A]: below 250 nM and 20000 to 100000 nM.
`CN1C[C@H]([C@H](c2ccccc2)n2ccnc2)n2ncc(=O)c(O)c2C1=O` [Compound 108-B]: the IC50 in experiment [1] is below 250 nM. The EC50 in experiment [2] (Influenza A virus) was in the range of 20000 to 100000 nM.
The matching figures for `C#Cc1ccn([C@H](c2ccccc2)[C@@H]2CN(C)C(=O)c3c(O)c(=O)cnn32)n1` [Compound 109-A]: below 250 nM and below 20000 nM.
As for `C#Cc1ccn([C@@H](c2ccccc2)[C@H]2CN(C)C(=O)c3c(O)c(=O)cnn32)n1` [Compound 109-B], the IC50 in experiment [1] is below 250 nM. The EC50 in experiment [2] (Influenza A virus) is below 20000 nM.
For `C#Cc1ccn([C@H](c2ccccc2)[C@H]2CN(C)C(=O)c3c(O)c(=O)cnn32)n1` [Compound 109-C], in that order: below 250 nM and below 20000 nM.
The matching figures for `C#Cc1ccn([C@@H](c2ccccc2)[C@@H]2CN(C)C(=O)c3c(O)c(=O)cnn32)n1` [Compound 109-D]: 250 to 1000 nM and below 20000 nM.
For `C#Cc1ccn(C(c2ccccc2)C2CN(C)C(=O)c3c(O)c(=O)cnn32)n1` (stereo not shown) [Compound 109], in that order: below 250 nM and below 20000 nM.
In the case of `C[C@@H](N1C[C@H](C(c2ccccc2)c2ccccc2)n2ncc(=O)c(O)c2C1=O)C(F)(F)F` [Compound 110-A], in experiment [1], the IC50 was below 250 nM. Further, in experiment [2] (Influenza A virus), the EC50 was below 20000 nM.
The matching figures for `CC#Cc1cn(C(c2ccccc2)C2CN(C)C(=O)c3c(O)c(=O)cnn32)cn1` (stereo not shown) [Compound 111]: 250 to 1000 nM and at least 100000 nM.
Consider `CC(C)N1C[C@H](C(c2ccccc2)c2ccccc2)n2ncc(=O)c(OC(=O)C3CCCCC3)c2C1=O` [Compound 112], for which the IC50 in experiment [1] fell in the range of 250 to 1000 nM. Moreover, in experiment [2] (Influenza A virus), the EC50 is below 20000 nM.
The matching figures for `CC(C)N1C[C@H](C(c2ccccc2)c2ccccc2)n2ncc(=O)c(OCOC(=O)C(C)(C)N)c2C1=O` [Compound 113-A]: below 250 nM and below 20000 nM.
The matching figures for `CC(C)N1C[C@@H](C(c2ccccc2)c2ccccc2)n2ncc(=O)c(OCOC(=O)C(C)(C)N)c2C1=O` [Compound 113-B]: 250 to 1000 nM and 20000 to 100000 nM.
With `CC(C)C(=O)Oc1c2n(ncc1=O)[C@@H](C1c3cccc(F)c3CCc3c(F)cccc31)CN(C(C)C)C2=O` [Compound 114-A], the IC50 in experiment [1] was below 250 nM. Moreover, the “Synergy Volume” value came to 86 μM^2% in experiment [3] (Compound 2 = Amantadine (M2 Channel-Inhibitor)); 132 μM^2% in experiment [3] (Compound 2 = Favipiravir (T-705) (Polymerase Inhibitor)); 205 μM^2% in experiment [3] (Compound 2 = Oseltamivir (Neuraminidase-Inhibitor)); 100 μM^2% in experiment [3] (Compound 2 = Peramivir (Neuraminidase-Inhibitor)); 55 μM^2% in experiment [3] (Compound 2 = Ribavirin (Polymerase Inhibitor)); 45 μM^2% in experiment [3] (setting [4]). The “Synergy Volume” value in experiment [3] (Compound 2 = Zanamivir (Neuraminidase-Inhibitor)) amounted to 127 μM^2%. For the same compound, in experiment [3] (setting [4]), the “Observed Result” value was “synergistic (volumes in the 25-100 range indicate synergistic behavior)”. Also, the EC50 in experiment [2] (Influenza A virus) was below 20000 nM.
For the compound `CC(C)C(=O)Oc1c2n(ncc1=O)[C@H](C1c3cccc(F)c3CCc3c(F)cccc31)CN(C(C)C)C2=O` [Compound 114-B], the IC50 in experiment [1] was at least 1000 nM. For the same compound, the EC50 in experiment [2] (Influenza A virus) was below 20000 nM.
For `CC(C)C(=O)Oc1c2n(ncc1=O)C(C1c3cccc(F)c3CCc3c(F)cccc31)CN(C(C)C)C2=O` (stereo not shown) [Compound 114], in that order: below 250 nM and below 20000 nM.
The matching figures for `CC#Cc1ccn([C@H](c2ccccc2)[C@@H]2CN(C)C(=O)c3c(O)c(=O)cnn32)n1` [Compound 115-A]: at least 1000 nM and below 20000 nM.
The matching figures for `CC#Cc1ccn([C@@H](c2ccccc2)[C@H]2CN(C)C(=O)c3c(O)c(=O)cnn32)n1` [Compound 115-B]: below 250 nM and below 20000 nM.
In the case of `CC#Cc1ccn([C@H](c2ccccc2)[C@H]2CN(C)C(=O)c3c(O)c(=O)cnn32)n1` [Compound 115-C], the IC50 in experiment [1] was below 250 nM. Moreover, the EC50 in experiment [2] (Influenza A virus) was below 20000 nM.
Consider `CC#Cc1ccn([C@@H](c2ccccc2)[C@@H]2CN(C)C(=O)c3c(O)c(=O)cnn32)n1` [Compound 115-D], for which the IC50 in experiment [1] is at least 1000 nM. Moreover, the EC50 in experiment [2] (Influenza A virus) is below 20000 nM.
The matching figures for `CC#Cc1ccn(C(c2ccccc2)C2CN(C)C(=O)c3c(O)c(=O)cnn32)n1` (stereo not shown) [Compound 115]: below 250 nM and below 20000 nM.
The matching figures for `C#Cc1cn(C(c2ccccc2)C2CN(C)C(=O)c3c(O)c(=O)cnn32)cn1` (stereo not shown) [Compound 116]: below 250 nM and below 20000 nM.
The matching figures for `CCC#Cc1ccn(C(c2ccccc2)C2CN(C)C(=O)c3c(O)c(=O)cnn32)n1` (stereo not shown) [Compound 117]: below 250 nM and below 20000 nM.
For the compound `CC(C)CC(=O)Oc1c2n(ncc1=O)[C@@H](C(c1ccccc1)c1ccccc1)CN(C(C)C)C2=O` [Compound 118], the half-maximal inhibitory concentration (IC50) in experiment [1] was in the range of 250 to 1000 nM. For the same compound, the EC50 in experiment [2] (Influenza A virus) is below 20000 nM.
For `CC(C)N1C[C@H](C(c2ccccc2)c2ccccc2)n2ncc(=O)c(OC(=O)C3CCCC3)c2C1=O` [Compound 119], in that order: below 250 nM and below 20000 nM.
For `CC(C)N1C[C@H](C(c2ccccc2)c2ccccc2)n2ncc(=O)c(OC(=O)C3CCOCC3)c2C1=O` [Compound 120], in that order: below 250 nM and below 20000 nM.
The matching figures for `CC(C)N1CC(C2c3ccccc3CSc3ccccc32)n2ncc(=O)c(O)c2C1=O` (stereo not shown) [Compound 121]: below 250 nM and below 20000 nM.
As to `CCC#Cc1ccn([C@H](c2ccccc2)[C@H]2CN(C)C(=O)c3c(O)c(=O)cnn32)n1` [Compound 122], in experiment [1], the IC50 is below 250 nM. Further, in experiment [2] (Influenza A virus), the EC50 is below 20000 nM.
For `CCC#Cc1ccn([C@@H](c2ccccc2)[C@H]2CN(C)C(=O)c3c(O)c(=O)cnn32)n1` [Compound 123], in that order: below 250 nM and below 20000 nM.
For `CCC#Cc1ccn([C@H](c2ccccc2)[C@@H]2CN(C)C(=O)c3c(O)c(=O)cnn32)n1` [Compound 124], in that order: 250 to 1000 nM and below 20000 nM.
The matching figures for `CCC#Cc1ccn([C@@H](c2ccccc2)[C@@H]2CN(C)C(=O)c3c(O)c(=O)cnn32)n1` [Compound 125]: below 250 nM and below 20000 nM.
As for `CCC#Cc1ccn(C(c2ccccc2)C2CN(C(C)C)C(=O)c3c(O)c(=O)cnn32)n1` (stereo not shown) [Compound 126], the IC50 in experiment [1] is below 250 nM. For the same compound, the EC50 in experiment [2] (Influenza A virus) was below 20000 nM.
For `CC(C)N1C[C@H]([C@H](c2ccccc2)n2ccc(C#N)n2)n2ncc(=O)c(O)c2C1=O` [Compound 127-A], in that order: below 250 nM and below 20000 nM.
In the case of `CC(C)N1C[C@H]([C@@H](c2ccccc2)n2ccc(C#N)n2)n2ncc(=O)c(O)c2C1=O` [Compound 127-B], the IC50 in experiment [1] is below 250 nM. Besides, the EC50 in experiment [2] (Influenza A virus) was below 20000 nM.
`CC(C)N1C[C@H]([C@@H](c2ccccc2)n2ccc(C#N)n2)n2ncc(=O)c(O)c2C1=O` [Compound 127-C]: the IC50 in experiment [1] lay within 250 to 1000 nM. The EC50 in experiment [2] is below 20000 nM.
Consider `CC(C)N1C[C@@H]([C@@H](c2ccccc2)n2ccc(C#N)n2)n2ncc(=O)c(O)c2C1=O` [Compound 127-D], for which, in experiment [1], the IC50 lay within 250 to 1000 nM. Further, the EC50 in experiment [2] (Influenza A virus) is below 20000 nM.
The matching figures for `CC(C)N1CC(C(c2ccccc2)n2ccc(C#N)n2)n2ncc(=O)c(O)c2C1=O` (stereo not shown) [Compound 127]: below 250 nM and below 20000 nM.
Turning to `CN1C[C@H]([C@@H](c2ccccc2)c2ccccn2)n2ncc(=O)c(O)c2C1=O` [Compound 128], the IC50 in experiment [1] is below 250 nM. In addition, the EC50 in experiment [2] (Influenza A virus) was below 20000 nM.
The matching figures for `[2H]c1c([2H])c([2H])c(C(c2c([2H])c([2H])c([2H])c([2H])c2[2H])[C@H]2CN(C(C)C)C(=O)c3c(O)c(=O)cnn32)c([2H])c1[2H]` [Compound 129]: below 250 nM and below 20000 nM.
Regarding `CN1C[C@@H]([C@@H](c2ccccc2)c2ccccn2)n2ncc(=O)c(O)c2C1=O` [Compound 131], in experiment [1], the IC50 was below 250 nM. For the same compound, in experiment [2] (Influenza A virus), the EC50 is below 20000 nM.
For `CC(C)N1C[C@H]([C@@H](c2ccccc2)c2ccccn2)n2ncc(=O)c(O)c2C1=O` [Compound 132], in that order: below 250 nM and below 20000 nM.
The matching figures for `CC(C)OC(=O)Oc1c2n(ncc1=O)[C@@H](C(c1ccccc1)c1ccccc1)CN(C(C)C)C2=O` [Compound 133]: at least 1000 nM and below 20000 nM.
For `CC(C)COC(=O)Oc1c2n(ncc1=O)[C@@H](C(c1ccccc1)c1ccccc1)CN(C(C)C)C2=O` [Compound 134], in that order: at least 1000 nM and below 20000 nM.
For the compound `CC(C)N1CC(C(c2ccccc2)c2cccnc2)n2ncc(=O)c(O)c2C1=O` (stereo not shown) [Compound 135], the IC50 in experiment [1] is below 250 nM. Besides, the concentration giving a half-maximal response (EC50) in experiment [2] (Influenza A virus) was below 20000 nM.
For `CC(C)N1C[C@@H]([C@@H](c2ccccc2)c2ccccn2)n2ncc(=O)c(O)c2C1=O` [Compound 138], in that order: below 250 nM and below 20000 nM.
